According to US9532997B2, “Compositions and methods for promoting intestinal stem cell function” (Whitehead Institute for Biomedical Research, priority 2012, dated 2017):
“Also recorded” adds a separate entry of the source.

How the values were obtained:
[1] = system: Paneth cells; experiment: Frequency of Paneth cells by flow cytometry in rapamycin-treated mice; format: in vivo; details: Rapamycin 4 mg/kg daily i.p., 4 weeks, n=13-14, FIG. 3h
Text: (§1) Mice were housed in the Unit for Laboratory Animal Medicine at the Whitehead Institute for Biomedical Research. Lgr5-EGFP-IRES-CreERT2 mice (Strain name: B6.129P2-Lgr5tm1(cre/ERT2)Cle/J, Stock Number: 008875) were purchased from Jackson Laboratories. UbiquitinC-CreERT2 mice were obtained from the Jackson Laboratory (Strain Name: B6; 129S-Tg(UBC-cre/ERT2)1Ejb/J, Stock Number: 007001). Rictor floxed mice were generated as described in^27 and backcrossed to C57BL/6 for at least 6 generations. TSC1^loxp/loxp mice were the generous gift of D. Kwiatkowski (Harvard Medical School) and backcrossed to C57BL/6 for at least 6 generations. Rosa26-CreERT2 mice (Rosa26 or R26) were obtained from the Jackson Laboratory (Strain 15 Name: B6.129-Gt(ROSA)26Sor^iml(cre/ERT2)Tyj/J, Stock Number 008463). CR was achieved by providing individual or paired mice a daily portion of a chow diet fortified with vitamins and minerals amounting to 60% of the daily food intake of their ad libitum counterparts^20. All adult mice used in CR experiments were between the ages of 10 to 24 weeks and were sacrificed prior to their daily feeding. Rictor or TSC1 was excised by treatment with tamoxifen suspended in corn or sunflower seed oil (Spectrum) at a concentration of 10 mg/mL, and 200 μl per 25 g of body weight was injected intraperitoneally into mice once daily for 5-7 days. […]

[2] = system: intestinal crypts; experiment: Organoid formation (clonogenicity) of intestinal crypts isolated from treated mice; format: in vivo
Text: (§2) Mice were housed in the Unit for Laboratory Animal Medicine at the Whitehead Institute for Biomedical Research. Lgr5-EGFP-IRES-CreERT2 mice (Strain name: B6.129P2-Lgr5tm1(cre/ERT2)Cle/J, Stock Number: 008875) were purchased from Jackson Laboratories. UbiquitinC-CreERT2 mice were obtained from the Jackson Laboratory (Strain Name: B6; 129S-Tg(UBC-cre/ERT2)1Ejb/J, Stock Number: 007001). Rictor floxed mice were generated as described in^27 and backcrossed to C57BL/6 for at least 6 generations. TSC1^loxp/loxp mice were the generous gift of D. Kwiatkowski (Harvard Medical School) and backcrossed to C57BL/6 for at least 6 generations. Rosa26-CreERT2 mice (Rosa26 or R26) were obtained from the Jackson Laboratory (Strain 15 Name: B6.129-Gt(ROSA)26Sor^iml(cre/ERT2)Tyj/J, Stock Number 008463). CR was achieved by providing individual or paired mice a daily portion of a chow diet fortified with vitamins and minerals amounting to 60% of the daily food intake of their ad libitum counterparts^20. All adult mice used in CR experiments were between the ages of 10 to 24 weeks and were sacrificed prior to their daily feeding. Rictor or TSC1 was excised by treatment with tamoxifen suspended in corn or sunflower seed oil (Spectrum) at a concentration of 10 mg/mL, and 200 μl per 25 g of body weight was injected intraperitoneally into mice once daily for 5-7 days. […] Mice were allowed to recover for at least 7 days after the last tamoxifen injection prior to any experiments. In vivo fate mapping in Lgr5-EGFP-IRES-reERT2; Rosa26loxpstoploxp-LacZ compound mice was done with a single injection of tamoxifen given at 200 μl per 25 g. As described previously^28, Rapamycin (LC Laboratories) was administered by intraperitoneal injection for 7 to 28 consecutive doses at 4 mg/kg. It was reconstituted in absolute ethanol at 10 mg/ml and diluted in 5% Tween-80 (Sigma) and 5% PEG-400 (Hampton Research) before injection. The final volume of all injections was 200 μl. Regular insulin (Lilly) was administered at 0.75 U/kg diluted in PBS 20 minutes prior to sacrificing fasted mice.
Small intestines were removed and the fat/mesentery was dissected away. The intestinal lumen was washed with ice cold PBS (Mg—/Ca—) using a 18 G feeding needle (Roboz FN-7905) until the intestines appeared white/pink. They were then opened longitudinally. The mucous was removed by gently rubbing the intestine between fingers in cold PBS. The intestines were cut into 3 to 5 mm fragments and placed into 50 ml conical tubes that were fill with ice cold 30 ml of PBS (Mg—/Ca—)/EDTA (10 mM). The samples were incubated and shook intermittently on ice for 30 minutes continuously discarding and replacing (at least 3 times) the supernatant. […]

[3] = system: Lgr5^hi ISCs; experiment: Frequency of Lgr5hi ISCs by flow cytometry in rapamycin-treated mice; format: in vivo; details: Rapamycin 4 mg/kg daily i.p., 4 weeks, n=13-14, FIG. 3g
Text: as §1

[4] = system: Paneth cells; experiment: Paneth cell numbers in small intestine after 10 Gy ionizing radiation (histology); format: in vivo, mice; details: for number of Paneth cells vs irradiated control, pre- and post-treatment: 4 mg/kg IP daily 1 week, 10 Gy gamma rays, then intermittent rapamycin two weeks, FIG. 14c; for number of Paneth cells vs irradiated control, post-treatment only: 10 Gy followed by intermittent rapamycin over two weeks, FIG. 14b
Experimental: Paneth cells are essential to the survival of Lgr5+ intestinal stem cells. […] The clonogenicity of ISCs is enhanced by co-culturing of these cells with Paneth cells from mice treated with caloric restriction or rapamycin (FIG. 13a). […] Mice were also treated with 10 Gy of radiation followed by intermittent treatment with rapamycin over the two weeks. […] Accordingly, rapamycin and derivatives or analogs or other agents thereof which inhibit mTOR, and/or and caloric restriction can be employed as agents for increasing the number and function of intestinal stem cells and Paneth cells, and as radioprotective agents against the acute and late toxicities of deliberate and accidental exposure to ionizing radiation.

[5] = system: enteroendocrine and goblet cells; experiment: Enteroendocrine (chromogranin A) and goblet cell (Alcian blue) differentiation; format: in vivo, mice; details: FIG. 6a-b
Experimental: Tissues were fixed in 10% formalin, paraffin embedded, and sectioned. Antigen retrieval was performed with Borg Decloaker RTU solution (Biocare Medical) in a pressurized Decloaking Chamber (Biocare Medical) for 3 minutes. Antibodies: rat anti-BrdU (1:2000; Abeam 6326), rabbit phospho-S6 Ser235/236 (1:500, CST 4858), rabbit cleaved caspase 3 (1:500; CST 9664), rabbit chromogranin A (1:3000, Abeam 15160), rabbit Lysozyme (1:2000; Thermo), rabbit Bst-1 (1:1000, Abeam 74301) and mouse Bst-1 (1:100 to 500, BD Pharmingen). For mouse Bst-1, the M.O.M (mouse on mouse) kit was used according to the manufacturer's instructions (Vector labs PK-2200). Biotin conjugated secondary donkey anti-rabbit or rat antibodies were used from Jackson ImmunoResearch. The Vectastain Elite ABC immunoperoxidase detection kit (Vector Labs PK-6101) followed by Dako Liquid DAB+ Substrate (Dako) was used for visualization. For immunofluorescence Alexa Fluor 568 secondary antibodies (Invitrogen) were used. All antibody incubations were performed with Common Antibody Diluent (Biogenex).

[6] = system: Lgr5hi ISCs combined with Paneth cells; experiment: Organoid formation of Lgr5hi ISCs cocultured with Paneth cells from treated mice; format: in vivo; details: for organoid formation of ISCs combined with Paneth cells from rapamycin-treated mice vs vehicle/AL Paneth cells: n=3-5, FIG. 3l, FIG. 13c
Text: as §2
Small intestines were removed and the fat/mesentery was dissected away. The intestinal lumen was washed with ice cold PBS (Mg—/Ca—) using a 18 G feeding needle (Roboz FN-7905) until the intestines appeared white/pink. They were then opened longitudinally. The mucous was removed by gently rubbing the intestine between fingers in cold PBS. The intestines were cut into 3 to 5 mm fragments and placed into 50 ml conical tubes that were fill with ice cold 30 ml of PBS (Mg—/Ca—)/EDTA (10 mM). The samples were incubated and shook intermittently on ice for 30 minutes continuously discarding and replacing (at least 3 times) the supernatant. The fragments were then continually resuspended with ice cold 30 ml PBS (Mg—/Ca—)/EDTA (10 mM) and intermittently shook on ice for 10 minutes, discarding the supernatant again for 3 times. The fragments were resuspended again with ice cold 30 ml PBS (Mg—/Ca—)/EDTA (10 mM) and incubated and intermittently shook while waiting on ice for 20 to 40 minutes. The samples were then triturated with a 10 ml pipette 1 to 2 times, and the contents were filtered twice through a 70-μm mesh (BD Falcon) into a 50 ml conical tube to remove villous material and tissue fragments. […] Crypts were removed from this step for crypt culture experiments and embedded in matrigel with crypt culture media. For ISC isolation, the crypt suspensions were centrifuged for 5 minutes at 250 g (4 C or room temperature). The pellets were gently resuspended in 1.0 ml of undiluted TrypLE Express (Invitrogen)+120 μl of DNase I (10 U/μl, Roche) and transferred to 15 ml conical tubes. The samples were incubated in a 32° C. water bath for 1.25 to 2 minutes, were not titurated, and were then placed on ice. 12 ml of cold SMEM was added to each sample and were gently triturated twice. The samples were then centrifuged for 5 minutes at 250 g.

## CO[C@H]1C[C@@H]2CC[C@@H](C)[C@@](O)(O2)C(=O)C(=O)N2CCCC[C@H]2C(=O)O[C@H]([C@H](C)C[C@@H]2CC[C@@H](O)[C@H](OC)C2)CC(=O)[C@H](C)/C=C(\C)[C@@H](O)[C@@H](OC)C(=O)[C@H](C)C[C@H](C)/C=C/C=C/C=C/1C [Rapamycin, sirolimus]
[1]
  increase in frequency of Paneth cells vs vehicle: more than 1.5 fold
[2]; CR+R treated mice, FIG. 3i
  effect of combination of CR and rapamycin on crypt organoid formation: non-additive
[2]; crypts isolated from mice given 4 mg/kg daily, n=3-5, FIG. 3i
  organoids per intestinal crypt, increase vs vehicle-treated mice: ~2 fold
[2]; mice treated for 1 week, FIG. 3i
  organoid body formation of crypts compared with CR: as capable of forming organoid bodies as those from mice on CR
[2]; rapamycin 1 to 3 weeks after Rictor-deletion in Rictorfl/fl UBC-CreERT2 mice vs WT, FIG. 3k
  crypt clonogenicity after Rictor deletion (mTORC2 independence): increased the clonogenicity of crypts irrespective of whether they were isolated from adult intestines expressing or lacking Rictor; also recorded: increased crypt clonogenicity to a similar extent as those isolated from rapamycin treated wild-type (WT) mice
[3]
  increase in frequency of ISCs vs vehicle: more than 1.5 fold
[4]
  number of Paneth cells vs irradiated control, pre- and post-treatment: increase in the number of morphologically normal Paneth cells
  number of Paneth cells vs irradiated control, post-treatment only: increase in the number of morphologically normal Paneth cells
[4]; listed as rapamycin
  number of Paneth cells vs irradiated control, pre- and post-treatment: significantly higher numbers of Paneth cells
  number of Paneth cells vs irradiated control, post-treatment only: significantly higher numbers of Paneth cells
[5]
  effects on enteroendocrine and goblet cell differentiation: minimal effects
[6]; 4 mg/kg
  organoids per AL Lgr5hi ISC mixed with Paneth cells from treated mice, increase vs vehicle: ~2 fold
[6]; CR+R treated mice, FIG. 3j
  effect of combination of CR and rapamycin in ISC-Paneth cell coculture: non-additive
[6]; FIG. 3l
  direct effect on ISC function (clonogenicity of ISCs from treated vs vehicle mice): no direct effect on ISC function
[6]; FIG. 3m
  secondary organoid bodies derived from rapamycin-treated Paneth cells vs vehicle: larger and more complex
[6]; Paneth cells placed in nutrient rich media that activates mTORC1
  stability of augmented capacity of Paneth cells to promote ISC self-renewal: maintain their augmented capacity to promote ISC self-renewal
[6]
  organoid formation of ISCs combined with Paneth cells from rapamycin-treated mice vs vehicle/AL Paneth cells: significantly increased
[6]; listed as rapamycin
  organoid formation of ISCs combined with Paneth cells from rapamycin-treated mice vs vehicle/AL Paneth cells: prominent increase; also recorded: significantly increased
